Test results from US20120252730A1, “PLATELET AGGREGATION INHIBITORS” (UNIVERSITY OF CHICAGO, priority 2009, published 2012).
Each block holds one molecule with its values, some of them ahead of it. Ends that are not written are not given here.

Columns and labels:
αIIbβ3 CHO K1 cells [1] = assay: Blocking of αIIbβ3 CHO K1 cell adhesion to GRGDSC monolayer; assay type: cell-based, human; conditions: PAC-1 antibody together with cyclic peptide inhibitor cRGDFG
Description: FIG. 2 depicts the results of FACS analyses and binding studies of a αIIbβ3 expressing CHO K1 cell line. […] Transfected αIIbβ3 CHO K1 cells express αIIbβ3 at the cell surface, as detected by anti-β3 and PAC-1 antibody (bottom) (the middle and right hand lanes show anti-β3 antibody and PAC-1 antibody binding, respectively). Panel B is a graph of the concentration of cRGDFG (SEQ ID NO: 12; where F is a D amino acid) versus adhesion of αIIbβ3 CHO K1 cells. The peptide cRGDFG (SEQ ID NO: 12), a cyclic peptide that specifically binds to α5 and αV integrins, inhibits CHO K1 cell adhesion to 0.5% GRGDSC (SEQ ID NO: 11) SAMs. Panels C-F are photomicrographs of cells adhering to GRGDSC (SEQ ID NO: 11).
CHO K1 cells were used that were transfected with the αIIbβ3 receptor, as described previously (Salsmann et al., 2005). Cells were transfected with pcDNA3.1 vectors that coded for αIIb and β3 using FuGENE6 and analyzed by FACS after labeling with the PAC-1 (anti-αIIbβ3) and H-96 (anti-β3) antibodies. Approximately 30% of the cells expressed the receptor (FIG. 2A). Because the CHO K1 cells also express αv and α5 integrins on their surfaces, adhesion experiments were performed in the presence of the cyclic peptide cRGDFG (SEQ ID NO: 12), where F is a D amino acid. […] All experiments that follow, unless stated otherwise, were performed in the presence of 300 μM cRGDFG (SEQ ID NO: 12).

αIIbβ3 CHO K1 cells [2] = assay: Immunostaining of cytoskeletal structure of αIIbβ3 CHO K1 cells adherent to model substrates; assay type: cell-based, human; conditions: monolayers presenting the peptide; four hours; anti-vinculin, phalloidin, DAPI
Description: αIIbβ3 CHO K1 cells were allowed to adhere and spread on substrates as described above. Substrates were washed gently with PBS, and fixed and permeabilized as described above. Cells were stained with monoclonal anti-vinculin IgG to visualize focal adhesions, phalloidin to visualize stress fibers and DAPI to visualize the nucleus. Substrates were rinsed thoroughly with PBS and mounted on microscope slides with Aqua Poly/Mount (PolySciences Inc.). Substrates were visualized with a 100× objective of a Zeiss Axiovert 200 inverted microscope, and photographed.
The assembly of focal adhesion and actin stress fibers of αIIbβ3 CHO K1 cells adhered to monolayers presenting GRGDSC (SEQ ID NO: 11), HHLGGAKQAGDVC (SEQ ID NO: 21) a mixture of both peptides, and adsorbed Fbg (FIGS. 3, E, F, G and H respectively) was compared. The αIIbβ3 CHO K1 cells were allowed to attach and spread on the monolayers for four hours, and then fixed the cells and probed with anti-vinculin IgG to visualize focal adhesions and with phalloidin-AF 488 to visualize actin stress fibers.

αIIbβ3 CHO K1 cells [3] = assay: Cell adhesion assay: αIIbβ3 CHO K1 cells on SAMs presenting immobilized peptides; assay type: cell-based, human; conditions: 0.5% peptide SAM; in presence of 300 μM cRGDFG
Protocol: Monolayers were prepared as described (Houseman, et al., 2003). Glass coverslips were sonicated for 30 minutes in deionized ultrafiltered (DIUF) water and then 30 minutes in ethanol and then dried under a stream of nitrogen. Titanium (4 nm) and then gold (29 nm) were evaporated onto the coverslips using an electron beam evaporator (Boc Edwards) at a rate of 0.05-0.10 nm/s and at a pressure of 1 μTorr. The gold-coated coverslips were immersed in an ethanolic solution of maleimide-terminated disulfide (1%) and tri(ethylene glycol)-terminated disulfide (99%) overnight at room temperature. The total disulfide concentration was 1 mM. The substrates were washed with DIUF water, ethanol and then dried under a stream of nitrogen.
The pcDNA3.1 vectors that express human αIIb or β3, respectively, have been described previously (see e.g., Litvinov et al. (2006) Biochemistry, 45: 4957-4964). CHO K1, BHK 21 and HT1080 cells were purchased from ATCC. All CHO cells were cultured at 37° C. and 5% CO2 using F12K medium supplemented with 10% FBS and pen/strep. […] CHO K1 cells were transfected with αIIb and β3 cDNA with FuGENE following the supplier's protocol. Transfected cells were selected with 1 mg/mL zeocin and 1 mg/mL geneticin.
(§1) Cysteine-terminated peptides were immobilized onto maleimide-presenting SAMs by adding 40 μL of 1 mM peptide solution to the biochip and incubating at 37° C. for 1 hour. Substrates were rinsed with DIUF water and ethanol and dried under a stream of nitrogen. αIIbβ3 CHO K1 cells were detached from culture plates with 1 mM EGTA/2 mM EDTA in PBS (phosphate-buffered saline), rinsed with serum-free F-12K medium, centrifuged and resuspended in serum-free F-12K medium supplemented with cRGDFG (SEQ ID NO: 12) (300 μM) and 1× penicillin/streptomycin. After 15-minute of incubation, cells (200,000/mL) were added to substrates in 24-well culture plates. After 2 hour incubation at 37° C. and 5% CO2, media was exchanged for F-12K medium supplemented with 10% FBS, 1× penicillin/streptomycin and cRGDFG (SEQ ID NO: 12) (300 μM). After 2 hours, the substrates were washed gently with warm PBS, and adherent cells were immediately fixed with 4% formaldehyde for 30 minutes, visualized with a 20× objective of a Zeiss Axiovert 200 inverted microscope, and photographed. For cell adhesion assays mediated by Ac-GXGDSC (SEQ ID NO: 26), αIIbβ3 CHO K1 cells were incubated on a 5×4 circle (1 mm diameter) array for 1 hour with serum-free F-12K medium supplemented with cRGDFG (SEQ ID NO: 12) (300 μM) and 1× penicillin/streptomycin, followed by media exchange to F-12K medium supplemented with 10% FBS, 1× penicillin/streptomycin and cRGDFG (SEQ ID NO: 12) (300 μM. The substrates were washed with warm PBS, and adherent cells were immediately fixed and permeabilized with 4% formaldehyde and 0.5% Triton-X for 30 minutes. Fixed cells were stained with DAPI, visualized and photographed with a 20× objective as described. The number of adherent cells per field of view was counted using Image J software. Cells were counted in at least three fields for each circle, and each experiment was repeated 3 times. The degree of adhesion is reported as a percentage of cells that adhere relative to control experiments with the peptide Ac-GRGDSC (SEQ ID NO: 28).
Monolayers were prepared that presented a mixture of maleimide groups and tri(ethylene glycol) groups with the former present at a density of 0.5% (relative to total alkanethiolate). The monolayers were treated with cysteine-terminated peptides to immobilize the ligands (FIG. 1A). In each case mass spectrometry was used to verify immobilization of the peptides in high yield (Su et al., 2002).
The adhesion and spreading of αIIbβ3 CHO K1 cells to monolayers presenting GRGDSC (SEQ ID NO: 11), HHLGGAKQAGDVC (SEQ ID NO: 21) and a mixture of both peptides was compared. […]

αIIbβ3 CHO K1 cells [4] = assay: Ac-GXGDSC peptide array cell adhesion, αIIbβ3 CHO K1 cells; assay type: cell-based, human; conditions: 0.5% peptide spots; 300 μM cRGDFG
Protocol: as §1
To further assay the binding of peptide ligands to the […] integrin for XGD peptide ligands, an array was used to assess the adhesion of cells to peptides having the arginine residue substituted with each amino acid other than cysteine (e.g., A, D, E, F, G, H, I, K, L, M, N, P, Q, R, S, T, V, W, and Y). The library of Ac-GXGDSC (SEQ ID NO: 26) peptides was synthesized and immobilized in an array with each peptide occupying a 1 mm diameter region of the monolayer (FIG. 61). A suspension of αIIbβ3 CHO K1 cells was applied to the entire array and cells were allowed to attach to regions presenting the various peptides. The substrates were then rinsed and stained with DAPI, and the cells were counted to determine the relative efficiency of cell attachment to peptides in the library. […] Substitution with leucine and isoleucine were also active, though at a lower level.

[5] = target: T1, human αIIbβ3 integrin on transfected CHO K1 cells (human, UniProt P08514 32-1039; P05106 27-788); assay: soluble peptide (1 pM to 100 µM) inhibits adhesion of αIIbβ3 CHO K1 cells to peptide monolayers
T1 construct: whole, on cells; CHO K1 cells transfected with human αIIb and β3 cDNA; about 30% of the cells expressed the receptor; also called platelet receptor; platelet integrin
Protocol: Suspensions of αIIbβ3 CHO K1 cells (100,000/mL) were incubated with cRGDFG (SEQ ID NO: 12) (300 μM) in serum-free F-12K medium with 1 mg/mL BSA (bovine serum albumin) and 1× penicillin/streptomycin for 15 minutes at 37° C. and 5% CO₂. These suspensions were then supplemented with soluble peptides at concentrations ranging from 1 pM to 100 μM and further incubated for 15 minutes at 37° C. and 5% CO₂. Cells were then added to monolayers and incubated at 37° C. and 5% CO₂ for 2 hours, then media was exchanged for F-12K medium supplemented with 10% FBS and 1× penicillin/streptomycin. The substrates were further incubated for 2 hours. The substrates were washed gently with warm PBS, and adherent cells were immediately fixed and permeabilized with 4% formaldehyde and 0.5% Triton-X for 30 minutes. Fixed cells were stained with DAPI, visualized and photographed with a 20× as described previously. The number of adherent cells per field of view was counted using Image J. Cells were counted in at least five fields for each substrate, and each experiment was repeated 3 times. The degree of inhibition is reported as a percentage of cells that adhere relative to control experiments in the absence of soluble peptide.
To verify that the two peptides interact with the same site on αIIbβ3, it was determined whether the peptides GRGDS (SEQ ID NO: 4), […] (SEQ ID NO: 1) and AGDV (SEQ ID NO: 22), in soluble form, could block the attachment of cells to the monolayers presenting these ligands. In these experiments identical suspensions of cells (100,000/mL) were first incubated in serum-free F-12K medium supplemented with cRGDFG (SEQ ID NO: 12) (300 μM) and with the soluble peptides in concentrations ranging from 1 pM to 100 μM and then applied the mixtures to monolayers presenting either the GRGDSC (SEQ ID NO: 11), […] (SEQ ID NO: 21), or AGDVC (SEQ ID NO: 17) peptide (SEQ ID NO: 17) (FIG. 5). Cells were allowed to attach for 2 hours, after which media was exchanged to 10% FBS F-12K medium (supplemented with cRGDFG (SEQ ID NO: 12)) and cultured for an additional 2 hours. […]

[6] = target: T1, human αIIbβ3 integrin on transfected …; assay: adhesion of αIIbβ3 CHO cells to the peptide monolayer, 300 µM cRGDFG present
Protocol: For cell adhesion assays mediated by Ac-GXGDSC (SEQ ID NO: 26), αIIbβ3 CHO K1 cells were incubated on a 5×4 circle (1 mm diameter) array for 1 hour with serum-free F-12K medium supplemented with cRGDFG (SEQ ID NO: 12) (300 μM) and 1× penicillin/streptomycin, followed by media exchange to F-12K medium supplemented with 10% FBS, 1× penicillin/streptomycin and cRGDFG (SEQ ID NO: 12) (300 μM. The substrates were washed with warm PBS, and adherent cells were immediately fixed and permeabilized with 4% formaldehyde and 0.5% Triton-X for 30 minutes. Fixed cells were stained with DAPI, visualized and photographed with a 20× objective as described. The number of adherent cells per field of view was counted using Image J software. Cells were counted in at least three fields for each circle, and each experiment was repeated 3 times. The degree of adhesion is reported as a percentage of cells that adhere relative to control experiments with the peptide Ac-GRGDSC (SEQ ID NO: 28).
CHO K1 cells were used that were transfected with the αIIbβ3 receptor, as described previously (Salsmann et al., 2005). Cells were transfected with pcDNA3.1 vectors that coded for αIIb and β3 using FuGENE6 and analyzed by FACS after labeling with the PAC-1 (anti-αIIbβ3) and H-96 (anti-β3) antibodies. Approximately 30% of the cells expressed the receptor (FIG. 2A). […]

Molecule: PAC-1
effect on adhesion of αIIbβ3 CHO K1 cells to monolayer presenting GRGDSC (αIIbβ3 CHO K1 cells [1]): prevented cell adhesion to the monolayer

Molecule: HHLGGAKQAGDVC (HHLGGAKQAGDVC-NH2) [Cys-terminated fibrinogen γ chain peptide immobilized on monolayer]
cytoskeletal structure and focal adhesions of adherent cells (αIIbβ3 CHO K1 cells [2]): well-developed cytoskeletal structures and mature focal adhesions along the perimeter
adhesion of αIIbβ3 CHO K1 cells to monolayer presenting the peptide (αIIbβ3 CHO K1 cells [3]): adhered

Molecule: GGRDGSC (scrambled peptide)
cell adhesion on Ac-GXGDSC array relative to Ac-GRGDSC (αIIbβ3 CHO K1 cells [4]): did not adhere
adhesion of αIIbβ3 CHO K1 cells to monolayer presenting the peptide (αIIbβ3 CHO K1 cells [3]): lack of cell attachment

B1: GRGDS (SEQ ID NO: 4), soluble peptide (peptide)
peptide: GRGDS-NH2
notes: also called soluble GRGDS
binding result [5]: binds

B2: HHLGGAKQAGDV (SEQ ID NO: 1), soluble peptide (peptide)
peptide: HHLGGAKQAGDV-NH2
notes: Synthetic peptide; also called γ peptide
binding result [5]: binds

Second part, the molecule after the results:

binding result [5]: binds
B3: AGDV (SEQ ID NO: 22), soluble peptide (peptide)
peptide: AGDV-NH2
notes: also called soluble AGDV

binding result [6]: binds
B4: HHLGGAKQAGDVC (SEQ ID NO: 21), immobilized on a self-assembled monolayer (peptide)
peptide: HHLGGAKQAGDVC-NH2
modifications: not fully specified (residue 13); also: C-terminal Cys thiol linked to maleimide of monolayer
notes: also called 0.5% HHLGGAKQAGDVC SAM; γ peptide

binding result [6]: binds
B5: GRGDSC (SEQ ID NO: 11), immobilized on a self-assembled monolayer (peptide)
peptide: GRGDSC-NH2
modifications: not fully specified (residue 6); also: C-terminal Cys thiol linked to maleimide of monolayer
notes: also called 0.5% GRGDSC SAM
